Experimental data: paper PMC9414684, “Quantitative Structure–Neurotoxicity Assessment and In Vitro Evaluation of Neuroprotective and MAO-B Inhibitory Activities of Series N′-substituted 3-(1,3,7-trimethyl-xanthin-8-ylthio)propanehydrazides” (Molecules, 2022)

Legend:
[1] = test system: isolated rat synaptosomes; test: 6-OHDA-induced oxidative stress model, GSH level; type: cell-based; conditions: for GSH levels stored (protected): 6-OHDA-induced oxidative stress, against the toxic agent
Procedure: The level of reduced glutathione was determined by measuring the non-protein SH-groups after precipitation of the proteins with trichloroacetic acid. After the incubation, synaptosomes were centrifuged at 400× g for 3 min. These diment were treated with 5% trichloroacetic acid and left for 10 min on ice. Samples were centrifuged at 8000× g for 10 min (2 °C). The supernatant was removed to determine the level of GSH and was stored at −20 °C. Immediately before the measurement, the samples were neutralized with 5 N NaOH.
The presence of thiols in the supernatant was determined using Ellman’s reagent. The resulting yellow color was measured spectrophotometrically at λ = 412 nm.
This in vitro model resembles the neurodegenerative processes occurring in PD. Dopamine metabolism and oxidation lead to the formation of ROS and reactive quinones. They induce dopamine neurotoxicity and neurodegeneration. The synaptosomes were incubated with 150 μmol 6-OHDA for 1 h.

[2] = target: MAO-B; design: method as in PMID 19342233; conditions: MAO-B inhibitor activity; cited from earlier work
[3] = test system: isolated rat brain microsomes; test: MDA production in isolated brain microsomes, compounds applied alone; type: cell-based; conditions: 100 µmol; for pro-oxidant effect (MDA production): applied alone, compared to the control (untreated microsomes); for neurotoxicity on microsomes in words: tested alone, compared to the control and to caffeine
Procedure: The brain microsomes were prepared according to the procedure described in [61]. […] The homogenate was centrifugated at 17,000× g for 30 min. The pellet was suspended in 4 vol of the homogenization buffer and centrifuged at 17,000× g for a further period of 30 min. The supernatants from both centrifugations were combined (post-mitochondrial supernatant) and centrifuged at 100,000× g for 1 h. The pellet was resuspended in the above buffer and centrifuged at 100,000× g for 1 h. The resulting pellet was frozen in the buffer with glycerol.
The quantity of the lipid peroxidation product MDA was assessed, using the method, described in the literature.
Analysis of quantitative structure–neurotoxicity relationships employed the data from in vitro assessments of synaptosome viability (%) and MDA production in microsomal fractions (nmol/0.1 mg protein) as indicators for the neurotoxicity of compounds.

[4] = test system: isolated rat brain synaptosomes; test: Synaptosomal viability (MTT test), compounds applied alone; type: cell-based; conditions: 100 µmol; for decrease of synaptosomal viability: applied alone, against the control (untreated synaptosomes); for neurotoxicity on synaptosomes in words: single application, compared to the control and to caffeine; for relative synaptosomal vitality (RV): synaptosomal viability relative to caffeine (1) = 1
Procedure: (§1) The synaptosomes and mitochondria were prepared as explained in [54, 55] with the help of a colloidal silicon solution (Percoll): 1. Preparation of 90% stock solution of Percoll. 2. Preparation of Percoll solutions with two concentrations, 16% and 10%. An amount of 4 ml of Percoll 16% and 10% were added in the tubes. 3. An amount of 90% Percoll (7.5% Percoll) was added to the sediment from the last centrifugation. The tubes were centrifuged for 20 min at 15,000× g at 4 °C, resulting in the formation of three layers. The lower layer contained mitochondria, the upper layer, lipids and the middle layer (between 16% and 10% Percoll), synaptosomes. The middle and the lower layers of each tube were harvested and buffer B with glucose was added. The mixture was centrifuged at 10,000× g for 20 min at 4 °C. After centrifugation, the sediment with the synaptosomes and mitochondria was mixed with buffer B with glucose.
After the incubation, the synaptosomes were centrifuged three times at 15,000× g for 1 min. An MTT test was performed to determine synaptosomal vitality by the method described in the literature. […]

[5] = test system: isolated rat brain mitochondria; test: MDA production in isolated brain mitochondria, compounds applied alone; type: cell-based; conditions: 100 µmol, against the control (untreated mitochondria)
Procedure: The synaptosomes and mitochondria were prepared as explained in [54, 55] with the help of a colloidal silicon solution (Percoll): 1. […] An amount of 4 ml of Percoll 16% and 10% were added in the tubes. 3. An amount of 90% Percoll (7.5% Percoll) was added to the sediment from the last centrifugation. The tubes were centrifuged for 20 min at 15,000× g at 4 °C, resulting in the formation of three layers. The lower layer contained mitochondria, the upper layer, lipids and the middle layer (between 16% and 10% Percoll), synaptosomes. The middle and the lower layers of each tube were harvested and buffer B with glucose was added. The mixture was centrifuged at 10,000× g for 20 min at 4 °C. After centrifugation, the sediment with the synaptosomes and mitochondria was mixed with buffer B with glucose. […] After that, the tubes were maintained in a bath filled with boiling water. Finally, the tubes were transferred to an ice bath and butanol (0.4 mL) was poured into each tube. In the next stage, centrifugation of the tubes was carried out at 3500× g for 10 min. Following that, assessment of the total quantity of MDA shaped in each sample was carried out using a spectrophotometer (UV-Vis Split) to measure the supernatant’s absorbance at 532 nm. The mitochondria were incubated with 75 µmol t-BuOOH [59]. The quantity of the lipid peroxidation product MDA was assessed, using the method, described in the literature.

[6] = test system: isolated rat microsomes; test: Fe2+/AA-induced lipid peroxidation model, MDA production; type: cell-based; conditions: 100 µmol, compared to the toxic agent
Procedure: The microsomes were pre-incubated with the analyzed compounds for 15 min at 37 °C. The reaction was started with a solution of iron sulphate 20 μmol and ascorbic acid 0.5 mmol. […] After starting the reaction, the LPO and the MDA quantity was assessed [62].
The quantity of the lipid peroxidation product MDA was assessed, using the method, described in the literature [62].

[7] = target: T1, human recombinant MAO-B enzyme (hMAOB) (Homo sapiens, UniProt P27338); test: Monoamine oxidase B activity, fluorimetric Amplex Ultra Red assay, tyramine substrate; type: biochemical; conditions: 1 µmol, applied alone, against the control (pure hMAOB)
T1 sequence (P27338 1-520): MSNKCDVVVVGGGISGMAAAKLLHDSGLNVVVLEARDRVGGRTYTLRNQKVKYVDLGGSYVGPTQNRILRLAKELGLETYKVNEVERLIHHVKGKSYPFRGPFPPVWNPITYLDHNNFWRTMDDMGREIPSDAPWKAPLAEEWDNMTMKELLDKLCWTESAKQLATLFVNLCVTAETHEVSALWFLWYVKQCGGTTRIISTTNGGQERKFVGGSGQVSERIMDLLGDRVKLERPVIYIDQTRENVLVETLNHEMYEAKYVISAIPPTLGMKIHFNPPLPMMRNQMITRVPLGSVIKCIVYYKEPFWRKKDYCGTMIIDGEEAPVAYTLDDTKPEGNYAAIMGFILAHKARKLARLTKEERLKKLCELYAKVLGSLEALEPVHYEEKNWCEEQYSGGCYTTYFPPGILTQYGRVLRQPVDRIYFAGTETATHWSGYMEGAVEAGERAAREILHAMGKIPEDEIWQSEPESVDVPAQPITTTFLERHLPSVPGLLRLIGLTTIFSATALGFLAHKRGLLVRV
Procedure: Monoamine oxidase activity assay of recombinant human MAO-B was performed using a fluorimetric method by Amplex Ultra Redreagent [63]. Tyramine hydrochloride was used as substrate.
The MAO-B activity was normalized as a percentage of the untreated control set as 100% and the results were expressed as mean values and standard deviation (±SD). Statistical analysis was performed by one-way analysis of variance (ANOVA) with a post hoc multiple comparisons procedure (Dunnet’s test) to assess the statistical differences in case of normal distribution. Values of p < 0.05, p < 0.01 and p < 0.001 were considered as statistically significant.

[8] = test system: isolated rat synaptosomes; test: 6-OHDA-induced oxidative stress model, synaptosomal vitality; type: cell-based; conditions: against the toxic agent
Procedure: After the incubation, the synaptosomes were centrifuged three times at 15,000× g for 1 min. An MTT test was performed to determine synaptosomal vitality by the method described in the literature [56]. […] The synaptosomes were incubated with 150 μmol 6-OHDA for 1 h [58].

[9] = test system: isolated rat brain mitochondria; test: GSH level in isolated brain mitochondria, compounds applied alone; type: cell-based; conditions: 100 µmol, against the control (untreated mitochondria)
Procedure: as §1
The DNTB spectrophotometric technique explained in [60] was applied for GSH content measurement in brain mitochondria. Then, 0.04% DTNB was mixed with the mitochondrial suspensions (0.5 mg protein/mL) in 0.1 mol/L of phosphate buffers (pH 7.4). The development of the yellow color was read at 412 nm (spectrophotometer UV-Vis Split).

Cn1c(=O)c2c(ncn2C)n(C)c1=O [compound 1, caffeine, reference compound]
GSH levels stored (protected) [1]: 30%
Ki [2]: 3.6 mM
pro-oxidant effect (MDA production) [3]: did not show any statistically significant pro-oxidant effect
neurotoxicity on microsomes in words [3]: lowest neurotoxicity
decrease of synaptosomal viability [4]: 26%
neurotoxicity on synaptosomes in words [4]: lowest neurotoxicity
change of MDA production [5]: did not change statistically significantly

NCCc1cc(O)c(O)cc1O [6-OHDA, 6-hydroxydopamine, reference compound]
decrease of GSH levels by the toxic agent ([1]; 6-OHDA applied alone (150 μmol, 1 h), against the control (untreated synaptosomes)): 50%

COc1ccc(C=NNC(=O)CCSc2nc3c(c(=O)n(C)c(=O)n3C)n2C)cc1OC [6g]
relative synaptosomal vitality (RV) [4]: 0.716

Cn1c(=O)c2c(nc(SCCC(=O)NN=Cc3c(Cl)cccc3Cl)n2C)n(C)c1=O [6c]
relative synaptosomal vitality (RV) [4]: 0.689

COc1cc(C=NNC(=O)CCSc2nc3c(c(=O)n(C)c(=O)n3C)n2C)cc(OC)c1O [6i]
relative synaptosomal vitality (RV) [4]: 0.743

Cn1c(=O)c2c(nc(SCCC(=O)NN=Cc3ccc([N+](=O)[O-])cc3)n2C)n(C)c1=O [6b]
relative synaptosomal vitality (RV) [4]: 0.703

COc1cccc(C=NNC(=O)CCSc2nc3c(c(=O)n(C)c(=O)n3C)n2C)c1O [6n]
relative synaptosomal vitality (RV) [4]: 0.689

Cn1c(=O)c2c(nc(SCCC(=O)NN=Cc3cccc([N+](=O)[O-])c3)n2C)n(C)c1=O [6o]
relative synaptosomal vitality (RV) [4]: 0.757

COc1cc(C=NNC(=O)CCSc2nc3c(c(=O)n(C)c(=O)n3C)n2C)cc(OC)c1OC [6h]
relative synaptosomal vitality (RV) [4]: 0.703

Cn1c(=O)c2c(nc(SCCC(=O)NN=Cc3cccc(Cl)c3)n2C)n(C)c1=O [6d]
relative synaptosomal vitality (RV) [4]: 0.730

Cn1c(=O)c2c(nc(SCCC(=O)NN=Cc3ccccc3)n2C)n(C)c1=O [6a]
relative synaptosomal vitality (RV) [4]: 0.743

Cn1c(=O)c2c(nc(SCCC(=O)NN=Cc3ccccc3O)n2C)n(C)c1=O [6l, N′-(2-hydroxybenzylidene)-3-(1,3,7-trimethyl-2,6-dioxo-2,3,6,7-tetrahydro-1H-purin-8-ylthio)propanehydrazide]
GSH levels stored (protected) [1]: 42%
reduction of MDA production [6]: 50%
inhibition of hMAOB activity [7]: 30%
protection of synaptosomal vitality [8]: 36%
pro-oxidant effect (MDA production) [3]: did not show any statistically significant pro-oxidant effect
neurotoxicity on microsomes in words [3]: lowest neurotoxicity
decrease of synaptosomal viability [4]: 28%
neurotoxicity on synaptosomes in words [4]: lowest neurotoxicity
relative synaptosomal vitality (RV) [4]: 0.973
neurotoxic effect on GSH level [9]: did not show any statistically significant neurotoxic effect
change of MDA production [5]: did not change statistically significantly

COc1cccc(C=NNC(=O)CCSc2nc3c(c(=O)n(C)c(=O)n3C)n2C)c1OC [6k, N′-(2,3-dimethoxybenzylidene)-3-(1,3,7-trimethyl-2,6-dioxo-2,3,6,7-tetrahydro-1H-purin-8-ylthio)propanehydrazide]
GSH levels stored (protected) [1]: 20%
reduction of MDA production [6]: 38%
inhibition of hMAOB activity [7]: 25%
protection of synaptosomal vitality [8]: 20%
pro-oxidant effect (MDA production) [3]: did not show any statistically significant pro-oxidant effect
neurotoxicity on microsomes in words [3]: lowest neurotoxicity
decrease of synaptosomal viability [4]: 29%
neurotoxicity on synaptosomes in words [4]: lowest neurotoxicity
relative synaptosomal vitality (RV) [4]: 0.959
change of MDA production [5]: did not change statistically significantly

Cc1cc(C)c(C=NNC(=O)CCSc2nc3c(c(=O)n(C)c(=O)n3C)n2C)c(C)c1 [6m]
relative synaptosomal vitality (RV) [4]: 0.716

COc1cc(C=NNC(=O)CCSc2nc3c(c(=O)n(C)c(=O)n3C)n2C)ccc1O [6j]
relative synaptosomal vitality (RV) [4]: 0.730

Cn1c(=O)c2c(nc(SCCC(=O)NN=Cc3ccc(C(F)(F)F)cc3)n2C)n(C)c1=O [6f]
relative synaptosomal vitality (RV) [4]: 0.757

Cn1c(=O)c2c(nc(SCCC(=O)NN=Cc3ccc(Br)cc3)n2C)n(C)c1=O [6e]
relative synaptosomal vitality (RV) [4]: 0.743
